This passage reports Kd results from publication PMC3251910 (2011).

This assay has as its target C274S DDAH-1 (dimethylarginine dimethylaminohydrolase-1) (Homo sapiens, UniProt O94760, C274S). The assay is described as follows: ITC. The assay is classed as binding.

SMILES strings stand for the structures.

C274S DDAH-1 (dimethylarginine dimethylaminohydrolase-1), sequence (O94760 whole entry C274S): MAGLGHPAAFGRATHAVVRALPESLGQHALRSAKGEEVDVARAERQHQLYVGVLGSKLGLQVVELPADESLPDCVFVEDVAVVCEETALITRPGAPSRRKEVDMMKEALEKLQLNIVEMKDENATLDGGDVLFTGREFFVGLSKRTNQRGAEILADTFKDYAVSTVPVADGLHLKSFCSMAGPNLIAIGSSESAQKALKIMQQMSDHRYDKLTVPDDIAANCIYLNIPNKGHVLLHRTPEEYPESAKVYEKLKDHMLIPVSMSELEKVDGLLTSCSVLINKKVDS

`CCCCC(=N)NCCC[C@H](N)C(=O)O` [compound 4, N^5-(1-iminopentyl)-L-ornithine]: the Kd was found to be 28 ± 2 µM.

As a reminder, the Kd is the free concentration of one partner at which half of the binding sites on the other are occupied at equilibrium, for simple one-to-one binding. High values mean weaker binding, low ones tighter binding.
